US20070027189A1, “Use of known active ingredients as radical scavengers” (Altana Pharma AG, priority 2003, published 2007)

How the values were obtained:
[1] = depolymerisation of hyaluronic acid by OH-radicals, viscosimetric; assay type: biochemical
Description: A suitable assay is the inhibition of the OH-radical-dependent degradation of the heme system of heme proteins. The […] of the Soret band of the heme group can be conveniently quantified in the 350-450 nm region. An alternative assay used was the depolymerisation of hyaluronic acid by OH-radicals The progressive depolymerisation of this mucopolysaccharide was followed viscosimetrically and should be inhibited accordingly in the presence of the prazoles. Depolymerisation of hyaluronic acid was measured in terms of viscosity change with time. Potassium hyaluronate was purchased from Sigma-Aldrich Chemie, Steinheim, Germany. All operations were performed at room temperature (22° C.). Relative viscosity was monitored by recording the time (seconds) required for a given volume (0.8 ml) of the reaction mixture to drain by gravity from the barrel of a plastic 1 ml syringe through a needle of appropriate size. The meniscus was timed as it passed between two calibration marks on the syringe barrel. […] The reaction was started with 30 μl of 50 mM ascorbic acid in presence of 10 mM phosphate buffer pH 7.2 and incubated for 5 minutes. […] When the water-soluble sodium salt of pantoprazole was examined only 2.5 μl 10 mM copper sulphate and 5 μl 50 mM ascorbic acid were needed to yield an appropriate depolymerization effect.

[2] = OH-radical-dependent degradation of haeme group (Soret band at 408 nm), Cu/ascorbate Fenton reaction; assay type: biochemical, Bovine; conditions: for inhibition of heme degradation: aqueous assay; for inhibition of heme degradation compared to control: dissolved in DMF
Description: A suitable assay is the inhibition of the OH-radical-dependent degradation of the heme system of heme proteins. The […] of the Soret band of the heme group can be conveniently quantified in the 350-450 nm region. An alternative assay used was the depolymerisation of hyaluronic acid by OH-radicals The progressive depolymerisation of this mucopolysaccharide was followed viscosimetrically and should be inhibited accordingly in the presence of the prazoles. Bovine erythrocytes were haemolysed and diluted with water to give an electronic absorption at 408 nm of 1.0. The assay was performed analogous to that of the myeloperoxidase enzymatic activity test where hypochlorite is produced which is known to degrade the heme group of heme proteins. To 574 μl of aqueous haeme solution in a thermostatted cuvette 6 μl of DMF or water and 10 μl of […] aqueous copper sulphate were added for 5 minutes. The reaction was started after the addition of 10 μl 50 μM ascorbic acid and the absorption followed at 37° C. for two minutes in the control experiment. Depending on the solubility the respective inhibitor was added in a volume of 6 μl in DMF or water. The total volume was 600 μl.

[3] = scavenging of hydroxyl radicals generated during a Fenton reaction (three assays); assay type: biochemical
Experimental: Bovine erythrocytes were haemolysed and diluted with water to give an electronic absorption at 408 nm of 1.0. The assay was performed analogous to that of the myeloperoxidase enzymatic activity test where hypochlorite is produced which is known to degrade the heme group of heme proteins. To 574 μl of aqueous haeme solution in a thermostatted cuvette 6 μl of DMF or water and 10 μl of […] aqueous copper sulphate were added for 5 minutes. The reaction was started after the addition of 10 μl 50 μM ascorbic acid and the absorption followed at 37° C. for two minutes in the control experiment. Depending on the solubility the respective inhibitor was added in a volume of 6 μl in DMF or water. The total volume was 600 μl. Depolymerisation of hyaluronic acid was measured in terms of viscosity change with time. Potassium hyaluronate was purchased from Sigma-Aldrich Chemie, Steinheim, Germany. All operations were performed at room temperature (22° C.). Relative viscosity was monitored by recording the time (seconds) required for a given volume (0.8 ml) of the reaction mixture to drain by gravity from the barrel of a plastic 1 ml syringe through a needle of appropriate size. The meniscus was timed as it passed between two calibration marks on the syringe barrel. […] The dye was measured at 532 nm.

[4] = stability under conditions of the Fenton reaction, HPLC analysis; assay type: physicochemical; conditions: 90 min of incubation, n=3
Description: In a third completely different method OH-radicals generated during a Fenton reaction decomposed 2-desoxy-D-ribose. This reaction was monitored by measuring the formation of malondialdehyde-like compounds known to yield coloured thiobarbituric acid adducts which were eventually recorded at 532 nm. […] This was attributed to the extraordinary stability of this compound surviving a hydroxyl radical burst A crucial question was the survival of these benzimidazoles during Fenton-type reactions. These stability measurements were conducted employing HPLC analysis allowing the detection of remaining intact primary compounds. A 200 μl aliquot of the incubation mixture was analysed by HPLC using the analytical column Nucleosil C 8, 5 μm (125×4.6 mm, Fa. Grom, Herrenberg, Germany) and the precolumn was LiCHROPREP RP-2 (12×4 mm, Fa. Merck, Darmstadt, Germany) in a reverse phase. A gradient of acetonitrile (10-45% (v/v)) and 10 mM phosphate buffer, pH 7.4, at a flow rate of 1 ml min-1 was used as effluent on the analytical column.

[5] = thiobarbituric acid assay (2-desoxy-D-ribose decomposition, Fe(II) Fenton reaction); assay type: biochemical; conditions: concentration dependent
Description: In a third completely different method OH-radicals generated during a Fenton reaction decomposed 2-desoxy-D-ribose. This reaction was monitored by measuring the formation of malondialdehyde-like compounds known to yield coloured thiobarbituric acid adducts which were eventually recorded at 532 nm. […] This was attributed to the extraordinary stability of this compound surviving a hydroxyl radical burst A crucial question was the survival of these benzimidazoles during Fenton-type reactions. These stability measurements were conducted employing HPLC analysis allowing the detection of remaining intact primary compounds. The thiobarbituric acid assay was performed according to the method described earlier [10]300 μl 7.5 mM 2-desoxy-D-ribose were added to 1000 μl 10 mM potassium-phosphate buffer, pH 7.4 and incubated for 30 min. at 37° C. in the presence of 100 μl inhibitor compound and 100 μl 10 mM iron(II)ammonium sulphate. The total volume was 1.5 ml. The reaction was stopped by the addition of 1 ml 1% (w/v) thiobarbituric acid dissolved in 50 mM NaOH and 1 ml of 2.8% (w/v) trichloro acetic acid and maintained for 15 min at 95° C. The control reaction mixture contained the same volume of DMFas was present in the inhibitor compound. The dye was measured at 532 nm.

[6] = after oral administration; read-out: maximal concentration (Cmax) in plasma; cited from earlier work
[7] = superoxide radical scavenging system (superoxide dismutase assay using nitro tetrazolium chloride); assay type: biochemical
Experimental: In order to examine a possible reactivity of the substituted benzimidazoles with superoxide a standard superoxide dismutase assay using nitro tetrazolium chloride was employed. Scavengeing of hydroxyl radicals was measured by three different established methods.

| SMILES | inhibition of hyaluronic acid depolymerisation ([1]; 12 μM, fully aqueous assay) [%] | biopolymer protected ([1]; 20 μM, fully aqueous assay) [%] | inhibition of heme degradation ([2]; 25 μM) | inhibition of heme degradation ([2]; 50 μM) [%] | inhibition of heme degradation ([2]; 100 μM) [%] | scavenging of hydroxyl radicals [3] | decrease of intact compound after OH-radical exposure [4] [%] | mucopolysaccharide degradation ([1]; 80 μM dissolved in DMF, within 20 min) [%] | inhibition of hyaluronic acid depolymerisation ([1]; 160 μM dissolved in DMF) | inhibitory effect on OH-radical decomposition of desoxyribose [5] | inhibition of heme degradation compared to control ([2]; 50 μM) [%] | inhibition of heme degradation compared to control ([2]; 100 μM) [%] | Cmax [6] [µM] | reactivity in the superoxide radical scavenging system [7] |
| --- | --- | --- | --- | --- | --- | --- | --- | --- | --- | --- | --- | --- | --- | --- |
| COc1ccnc(C[S+]([O-])c2nc3ccc(OC(F)F)cc3[nH]2)c1OC (centres unmarked) [pantoprazole sodium] | 46 | 90 | distinct inhibition | 34 | 74 |  |  |  |  |  |  |  |  |  |
| COc1ccnc(C[S+]([O-])c2nc3ccc(OC(F)F)cc3[nH]2)c1OC (centres unmarked) [pantoprazole, 5-difluoromethoxy-2-[(3,4-dimethoxy-2-pyridinyl)methylsulphinyl]-1H-benzimidazole] |  |  |  |  |  | pronounced inhibitory reactivity | 15 | 48 | nearly complete inhibition | inhibitory effect was clearly seen | 36 | 75 | 5 to 10 | did not display detectable reactivity |
